Experimental data as given in paper PMC11364775, “Ion occupancy of the selectivity filter controls opening of a cytoplasmic gate in the K2P channel TALK-2” (Nature Communications, 2024).
Changes are numbered by the printed parent chain. Entries after “also recorded” stand apart in the source; their conditions may differ. Each block holds one compound with its values, some of them ahead of it.

Columns and labels:
WT TALK-2 channels [1] = molecular target: T1, WT TALK-2 channels (Homo sapiens, UniProt Q96T54); assay: Pore blocker inhibition (dose-response, residual currents) in inside-out patches at +40 mV; assay type: cell-based; design: expressed in transfected cells; host or cells: Xenopus laevis oocytes (cRNA injection), excised inside-out patches; settings: for blocker inhibition upon activation by 2-APB: 2-APB pre-activated
T1 sequence (Q96T54 1-332): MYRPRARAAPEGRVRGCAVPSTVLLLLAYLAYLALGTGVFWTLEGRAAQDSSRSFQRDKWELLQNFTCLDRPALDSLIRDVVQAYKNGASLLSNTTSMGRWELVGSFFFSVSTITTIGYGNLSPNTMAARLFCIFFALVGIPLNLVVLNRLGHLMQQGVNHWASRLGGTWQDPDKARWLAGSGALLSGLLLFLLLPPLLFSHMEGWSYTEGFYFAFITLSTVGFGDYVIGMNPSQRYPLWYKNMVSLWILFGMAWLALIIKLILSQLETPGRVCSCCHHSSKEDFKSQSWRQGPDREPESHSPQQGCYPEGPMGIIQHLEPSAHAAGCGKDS
Procedure: (§1) Data shown are the mean ± s.e.m and the number (n) of independent experiments and repeats of representative measurements with similar results is indicated in the figure.
(§2) Electrophysiological recordings: Excised patch measurements in inside-out configuration under voltage-clamp conditions were performed at room temperature (22 – 24 °C). Patch pipettes were made from thick-walled borosilicate glass GB 200TF-8P (Science Products, Germany), had resistances of 0.2–0.5 MΩ (tip diameter of 10 - 25 µm) and filled with a pipette solution (in mM): 120 KCl, 10 HEPES and 3.6 CaCl2 (pH 7.0 - 8.5 adjusted with KOH/HCl) or 120 KCl, 10 AMPSO and 3.6 CaCl2 (pH 9.0 - 10.5 adjusted with KOH/HCl). Intracellular bath solutions and compounds were applied to the cytoplasmic side of excised patches for the various K^+ channels via a gravity flow multi-barrel pipette system. Intracellular solution had the following composition (in mM): 120 KCl, 10 HEPES, 2 EGTA and 1 Pyrophosphate (pH adjusted with KOH/HCl). In other intracellular bath solutions, K^+ was replaced by Rb^+ (pH 7.4 adjusted with RbOH/HCl). Currents were recorded with an EPC10 amplifier (HEKA electronics, Germany) and sampled at 10 kHz or higher and filtered with 3 kHz (-3 dB) or higher as appropriate for sampling rate.
(§3) Data analysis and statistics were done using Fitmaster (HEKA electronics, version: v2x73.5, Germany), Microsoft Excel 2021 (Microsoft Corporation, USA), and Igor Pro 9 software (WaveMetrics Inc., USA). Recorded currents were analyzed from stable membrane patches at a voltage defined in the respective figure legend or with a voltage protocol as indicated in the respective figure. […] Percentage inhibition or residual currents upon blocker application for a ligand (drug or bioactive lipid) was calculated from stable currents of excised membrane patches using the following Eqs. 2 and 3:2 %inhibition=1−Iinhibited/Ibasal*100 3 Residual current=100−%inhibition where Iinhibited refers to the stable current level recorded in the presence of a given concentration of a drug or bioactive lipid and Ibasal to the measured current before ligand application.

[2] = molecular target: T2, TALK-2 L264A mutant channels (Homo sapiens, UniProt Q96T54, L264A); assay: as above; assay type: cell-based; design: expressed in transfected cells; host or cells: Xenopus laevis oocytes (cRNA injection), excised inside-out patches; settings: TALK-2 L264A
T2 sequence (Q96T54 1-332 L264A): T1 sequence (Q96T54 1-332) with L264A
Procedure: as §1, §2, §3

[3] = molecular target: T3, WT TALK-2 channels (human K2P17.1) (Homo sapiens, UniProt Q96T54); assay: Inside-out patch-clamp, ligand activation of channel currents at +40 mV (oocytes)
T3 sequence (Q96T54 1-332): T1 sequence (Q96T54 1-332)
Procedure: Oocytes were surgically removed from anesthetized adult females, treated with type II collagenase (Sigma-Aldrich/Merck, Germany) and manually defolliculated. 50 nl of a solution containing the K^+ channel specific cRNA was injected into Dumont stage V - VI oocytes and subsequently incubated at 17 °C in a solution containing (mM): 54 NaCl, 30 KCl, 2.4 NaHCO3, 0.82 MgSO4 x 7 H2O, 0.41 CaCl2, 0.33 Ca(NO3)2 x 4 H2O and 7.5 TRIS (pH 7.4 adjusted with NaOH/HCl) for 1–7 days before use. Electrophysiological recordings: Excised patch measurements in inside-out configuration under voltage-clamp conditions were performed at room temperature (22 – 24 °C). […] Intracellular bath solutions and compounds were applied to the cytoplasmic side of excised patches for the various K^+ channels via a gravity flow multi-barrel pipette system. Intracellular solution had the following composition (in mM): 120 KCl, 10 HEPES, 2 EGTA and 1 Pyrophosphate (pH adjusted with KOH/HCl). In other intracellular bath solutions, K^+ was replaced by Rb^+ (pH 7.4 adjusted with RbOH/HCl). Currents were recorded with an EPC10 amplifier (HEKA electronics, Germany) and sampled at 10 kHz or higher and filtered with 3 kHz (-3 dB) or higher as appropriate for sampling rate.
Recorded currents were analyzed from stable membrane patches at a voltage defined in the respective figure legend or with a voltage protocol as indicated in the respective figure. The fold activation (fold change in (tail) current amplitude) of a ligand (drug or bioactive lipid) was calculated from Eq. 1:1 Fold activationFA=Iactivated/Ibasal where Iactivated represents the stable current level in the presence of a given concentration of a respective ligand and Ibasal the measured current before ligand application. Percentage inhibition or residual currents upon blocker application for a ligand (drug or bioactive lipid) was calculated from stable currents of excised membrane patches using the following Eqs. 2 and 3:2 %inhibition=1−Iinhibited/Ibasal*100 3 Residual current=100−%inhibition where Iinhibited refers to the stable current level recorded in the presence of a given concentration of a drug or bioactive lipid and Ibasal to the measured current before ligand application. The macroscopic half-maximal concentration-inhibition relationship of a ligand was obtained using a Hill-fit for dose-response curves as depicted in Eq. 4:4 %inhibition/activation=Ibase+Imax−Ibase/1+x1/2/x^rate where base and max are the currents in the absence and presence of a respective ligand, x is the concentration of the ligand, x1/2 is the ligand concentration at which the activatory or inhibitory effect is half-maximal, rate is the Hill coefficient.

WT TALK-2 channels [4] = molecular target: T1, WT TALK-2 channels; assay: Cysteine modification assay with MTS-ET, control (inside-out patch); settings: basal state or activated with 2-APB or oleoyl-CoA; 1.0 mM MTS-ET
Procedure: To investigate the latter, we utilized a cysteine modification assay.
Oocytes were surgically removed from anesthetized adult females, treated with type II collagenase (Sigma-Aldrich/Merck, Germany) and manually defolliculated. 50 nl of a solution containing the K^+ channel specific cRNA was injected into Dumont stage V - VI oocytes and subsequently incubated at 17 °C in a solution containing (mM): 54 NaCl, 30 KCl, 2.4 NaHCO3, 0.82 MgSO4 x 7 H2O, 0.41 CaCl2, 0.33 Ca(NO3)2 x 4 H2O and 7.5 TRIS (pH 7.4 adjusted with NaOH/HCl) for 1–7 days before use. Electrophysiological recordings: Excised patch measurements in inside-out configuration under voltage-clamp conditions were performed at room temperature (22 – 24 °C). […] Currents were recorded with an EPC10 amplifier (HEKA electronics, Germany) and sampled at 10 kHz or higher and filtered with 3 kHz (-3 dB) or higher as appropriate for sampling rate.
Data analysis and statistics were done using Fitmaster (HEKA electronics, version: v2x73.5, Germany), Microsoft Excel 2021 (Microsoft Corporation, USA), and Igor Pro 9 software (WaveMetrics Inc., USA). Recorded currents were analyzed from stable membrane patches at a voltage defined in the respective figure legend or with a voltage protocol as indicated in the respective figure.

WT TALK-2 channels [5] = molecular target: T1, WT TALK-2 channels; assay: Tail current deactivation kinetics with pore blocker (inside-out patch); assay type: cell-based; design: expressed in transfected cells; host or cells: Xenopus laevis oocytes (cRNA injection), excised inside-out patches; settings: intracellular Rb+ without blocker; step to +100 mV, repolarization to -80 mV
From the text: In voltage-gated K^+ (Kv) channels, the closing of the lower gate can be prevented by the binding of blockers such as tetra-pentyl-ammonium (TPenA) in the pore cavity and, thereby, causing a slowing of the deactivation kinetics which is known as the ‘foot in the door’ effect[33],[34]. To test for such a mechanism in TALK-2, we activated the channels with a voltage step to +100 mV in the presence of intracellular Rb^+ followed by a repolarization step to -80 mV (to induce tail currents) with and without the K2P channel pore blocker TPenA. […] We hypothesize, that the two gates are strongly coupled and, therefore, opening the SF gate by depolarization should also open the lower gate, which then consequently would allow blocker (like TPenA) binding within the pore cavity (Fig. 5a cartoon). Upon repolarization, however, the bound TPenA blocker obstructs closure of the lower gate and thereby, hinders the SF from closure/inactivation (gate coupling).

[6] = molecular target: T4, WT TREK-2 channels (human K2P10.1) (Homo sapiens, UniProt P57789); assay: as above; assay type: cell-based; settings: intracellular Rb+ without blocker
T4 construct: expressed in transfected cells; host or cells: Xenopus laevis oocytes (cRNA injection), excised inside-out patches
T4 sequence (P57789 1-538): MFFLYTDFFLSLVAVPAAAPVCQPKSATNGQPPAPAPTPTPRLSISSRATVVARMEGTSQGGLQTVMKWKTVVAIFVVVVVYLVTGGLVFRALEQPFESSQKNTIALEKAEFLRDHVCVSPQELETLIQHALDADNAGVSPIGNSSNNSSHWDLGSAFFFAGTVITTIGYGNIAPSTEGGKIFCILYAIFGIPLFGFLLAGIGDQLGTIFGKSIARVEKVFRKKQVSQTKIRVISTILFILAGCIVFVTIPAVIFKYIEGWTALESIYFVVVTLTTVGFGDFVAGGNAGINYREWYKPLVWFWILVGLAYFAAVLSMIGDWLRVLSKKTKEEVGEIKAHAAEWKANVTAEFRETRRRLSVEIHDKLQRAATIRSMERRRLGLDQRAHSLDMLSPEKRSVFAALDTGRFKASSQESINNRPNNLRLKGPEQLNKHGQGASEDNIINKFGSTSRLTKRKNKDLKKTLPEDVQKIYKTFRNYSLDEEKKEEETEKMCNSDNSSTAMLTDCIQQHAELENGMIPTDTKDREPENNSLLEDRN

- blocker inhibition upon activation by 2-APB (WT TALK-2 channels [1]): strong inhibition
- Residual currents with 10 µM A1899 (WT TALK-2 channels [1]; TALK-2 WT + 1.0 mM 2-APB): 50.53%
- Residual currents with 10 µM A1899 (WT TALK-2 channels [1]; TALK-2 WT): 100.95%
- blocker inhibition of unstimulated TALK-2 channels (WT TALK-2 channels [1]): little inhibition
- Residual currents with 10 µM A1899 ([2]; 10 µM A1899): 41.55%
Compound: COc1ccc(CC(=O)NCc2ccccc2-c2ccccc2C(=O)NCc2ccc(F)cc2F)cc1 [A1899]

- blocker inhibition upon activation by 2-APB (WT TALK-2 channels [1]): strong inhibition
- Residual currents with 50 µM AVE0118 (WT TALK-2 channels [1]; TALK-2 WT + 1.0 mM 2-APB): 12.33%
- Residual currents with 50 µM AVE0118 (WT TALK-2 channels [1]; TALK-2 WT): 96.7%
- blocker inhibition of unstimulated TALK-2 channels (WT TALK-2 channels [1]): little inhibition
- Residual currents with 50 µM AVE0118 ([2]; 50 µM AVE0118): 14.56%
Compound: COc1ccc(CC(=O)NCc2ccccc2-c2ccccc2C(=O)NCCc2cccnc2)cc1 [AVE0118]

- activation of TALK-2 channels by BL-1249 ([3]; 50 µM BL-1249, +40 mV): robust and reversible channel activation
- Fold activation 50 µM BL-1249 ([3]; 50 µM, TALK-2 WT): 72.38 fold
Compound: c1ccc(-c2nn[nH]n2)c(Nc2cccc3c2CCCC3)c1 [BL-1249]

Compound: C[N+](C)(C)CCSS(C)(=O)=O.[Cl-] [MTS-ET]
- effect of MTS-ET on WT TALK-2 currents (WT TALK-2 channels [4]): almost no effect; also recorded: insensitive

- deactivation time constant τ of tail currents (WT TALK-2 channels [5]): 3.0 ± 0.2 ms
- deactivation time constant τ of tail currents [6]: 17.5 ± 1.7 ms
- Fold Rb+ activation ([3]; TALK-2 WT): 9.12 fold
Compound: [Rb+] [Rb^+]

- blocker inhibition upon activation by 2-APB (WT TALK-2 channels [1]): strong inhibition
- Residual currents with 50 µM S9947 (WT TALK-2 channels [1]; TALK-2 WT + 1.0 mM 2-APB): 6.15%
- Residual currents with 50 µM S9947 (WT TALK-2 channels [1]; TALK-2 WT): 98.48%
- blocker inhibition of unstimulated TALK-2 channels (WT TALK-2 channels [1]): little inhibition
- Residual currents with 50 µM S9947 ([2]; 50 µM S9947): 41.47%
Compound: O=C(NCc1ccccc1-c1ccccc1C(=O)NCCc1ccccn1)OCc1ccccc1 [S9947]
